Experimental data taken from publication PMC7139549, “TLD1433 Photosensitizer Inhibits Conjunctival Melanoma Cells in Zebrafish Ectopic and Orthotopic Tumour Models” (Cancers, 2020).

System: CRMM1 cells injected behind the eye (RO) of zebrafish embryos
Experiment: Zebrafish orthotopic CM tumour model, CRMM1
Assay type: in vivo, Zebrafish (Danio rerio)
Conditions: for PI (Fluorescence Intensity) / PI (Tumour Area) / Relative Tumour Burden as Measured by Fluorescence Intensity / Tumour Area: CRMM1, Orthotopic Model; for PI (Fluorescence Intensity) / PI (Tumour Area): 0 vs 114 J.cm^−2
Method: The zebrafish ectopic conjunctival melanoma tumour model has been described previously. In this model, around 200 fluorescent CM cells are injected into the Duct of Cuvier at 2 dpf, and then disseminate through the blood circulation and grow in the head and tail. To establish the orthotopic tumour model, around 100 red, (td)Tomato fluorescent CRMM1 or CRMM2 cells were injected RO at 2 dpf into tg(Fli:GFP/Casper), endothelial reporter transgenic zebrafish with green fluorescent vasculature and examined by fluorescent microscopy at day 1 and 4 after engraftment (Figure 6A). Tumour expansion at the injection site was measured as fluorescence intensity and tumour area.
For cancer cell injection, two days post-fertilization (dpf), dechorionated zebrafish embryos were anaesthetized with 0.003% tricaine (Sigma) and plated on a 10 cm Petri dish covered with 1.5% of solidified agarose. CRMM1 and CRMM2 cells were suspended in PBS containing 2% polyvinylpyrrolidone (PVP; Sigma-Aldrich) with a concentration of 50,000 cells/µL and loaded into borosilicate glass capillary needles (1 mm O.D. × 0.78 mm I.D.; Harvard Apparatus). In the ectopic model, 200 (td)Tomato fluorescent CM cells were injected into the Duct of Cuvier or at 2 dpf, which led to dissemination through the blood circulation and outgrowth in the head and tail. In orthotopic tumour model, 100 (td)Tomato fluorescent CRMM1 or CRMM2 cells were injected RO in 2 dpf embryos using a Pneumatic Picopump and a manipulator (WPI). After injection, the embryos were incubated in a 34 °C incubator. Images were acquired at 1-, 2- and 4-days post injection (dpi) with a Leica M165 FC stereo fluorescence microscope. Tumor growth was quantified by calculating the total fluorescence intensity and area with the ZF4 pixel counting program (Leiden). Each experiment was performed at least 3 times with a group size of >30 embryos.
Fluorescent CRMM1 and CRMM2 cells were injected at 2 dpf into the Duct of Cuvier (ectopic model) and behind the eye (orthotopic model) and TLD1433 was delivered by WA, IV and RO administration with or without a light treatment as described in 4.8. For the WA administration, the 4.6 nM TLD1433 solution was added to the tumour cells injected zebrafish at 2.5, 3.5, 4.5, 5.5 dpf and maintained for 12 h. At 3, 4, 5, 6 dpf, the fish water was refreshed, and after 1 h, embryos were exposed to green light for 90 min (21 mW/cm^2, 114 J/cm^2, 520 nm). For the IV and RO administration, 1 nL of 2.3 mM TLD1433 solution was injected via the dorsal vein or the RO site at 3, 4, 5, 6 dpf. After 1 h interval, the embryos were exposed to green light for 90 min (21 mW/cm^2, 114 J/cm^2, 520 nm). After treatment, the embryos images were acquired with a Leica M165 FC stereo fluorescence microscope. Tumor growth was quantified by calculating the total fluorescence intensity and area with the ZF4 pixel counting program (Leiden). Each experiment was performed at least 3 times with a group size of >30 embryos.

[1] = Intravenous (1 nL of 2.3 mM), Light Dose 0 J.cm^−2, vs control dark group (100%)
[2] = Intravenous (1 nL of 2.3 mM), Light Dose 114 J.cm^−2, vs control dark group (100%)
[3] = Water (4.6 nM), Light dose 0 J.cm^−2, vs control dark group (100%)
[4] = Water (4.6 nM), Light dose 114 J.cm^−2, vs control dark group (100%)
[5] = CRMM1, orthotopic model, RO 2.3 mM, green light 114 J.cm^−2

Cc1ccnc(-c2cc(C)ccn2)c1.Cc1ccnc(-c2cc(C)ccn2)c1.[Cl-].[Cl-].[Ru+2].c1csc(-c2ccc(-c3ccc(-c4nc5c6cccnc6c6ncccc6c5[nH]4)s3)s2)c1 [TLD1433]
PI (Fluorescence Intensity) (Intravenous (1 nL of 2.3 mM)): 0.82
PI (Tumour Area) (Intravenous (1 nL of 2.3 mM)): 0.87
Relative Tumour Burden as Measured by Fluorescence Intensity [1]: 91%
Tumour Area [1]: 109%
Relative Tumour Burden as Measured by Fluorescence Intensity [2]: 111%
Tumour Area [2]: 126%
PI (Tumour Area) (Retro orbital (1 nL of 2.3 mM)): 4.1
Tumour Area (Retro orbital (1 nL of 2.3 mM), Light dose 0 J.cm^−2, vs control dark group (100%)): 125%
Tumour Area (Retro orbital (1 nL of 2.3 mM), Light dose 114 J.cm^−2, vs control dark group (100%)): 31%
PI (Fluorescence Intensity) (Retro-orbital (1 nL of 2.3 mM)): 1.8
Relative Tumour Burden as Measured by Fluorescence Intensity (Retro-orbital (1 nL of 2.3 mM), Light Dose 0 J.cm^−2, vs control dark group (100%)): 120%
Relative Tumour Burden as Measured by Fluorescence Intensity (Retro-orbital (1 nL of 2.3 mM), Light Dose 114 J.cm^−2, vs control dark group (100%)): 65%
PI (Fluorescence Intensity) (Water (4.6 nM)): 1.0
PI (Tumour Area) (Water (4.6 nM)): 1.0
Relative Tumour Burden as Measured by Fluorescence Intensity [3]: 96%
Tumour Area [3]: 90%
Relative Tumour Burden as Measured by Fluorescence Intensity [4]: 96%
Tumour Area [4]: 89%
diminished fluorescence intensity [5]: 35%
diminished tumour area [5]: 69%
effect on tumour burden (in words) (CRMM1, orthotopic model, WA at the MTD (4.6 nM), light 114 J.cm^−2): did not inhibit tumour burden
